Experimental data from ChEMBL document CHEMBL1131820, “Synthesis of pyrazolidinone antibacterial agents” (1999).
Values after ≈ are worked out from the molar mass of the structure shown. Active and inactive are the calls of the source. The rule behind the calls is not given here.

Experiments:
Escherichia coli [1] = experiment: Compound was tested by in vitro qualitative microbiological testings with cephalothin against Escherichia coli; positive synergy test; assay type: functional, organism-based
Staphylococcus aureus [2] = experiment: Compound was tested by in vitro qualitative microbiological testings with cephalothin against Staphylococcus aureus; positive synergy test; assay type: functional, organism-based
Escherichia coli [3] = experiment: Compound was tested by in vitro qualitative microbiological testings with cephalothin against Escherichia coli; No anti bacterial activity; assay type: functional, organism-based
Staphylococcus aureus [4] = experiment: Compound was tested by in vitro qualitative microbiological testings with cephalothin against Staphylococcus aureus; No anti bacterial activity; assay type: functional, organism-based
Escherichia coli [5] = experiment: In vitro antibacterial activity against Escherichia coli; Active; assay type: functional, organism-based
Micrococcus luteus = experiment: microbe, parasite or virus in culture; assay type: functional
Description: Antibacterial activity against Micrococcus luteus; 128 to 512 ug/mL

Staphylococcus aureus [6] = experiment: microbe, parasite or virus in culture; assay type: functional

Structure (SMILES) | MIC (Micrococcus luteus) | MIC (Staphylococcus aureus [6]) | Activity (Escherichia coli [1]) | Activity (Staphylococcus aureus [2]) | Activity (Escherichia coli [3]) | Activity (Staphylococcus aureus [4]) | Activity (Escherichia coli [5])
CC(=O)N1C(=O)C(NC(=O)Cc2ccccc2)CN1C (centres undefined) | – | – | positive synergy test | positive synergy test | – | – | –
CN1CC(NC(=O)Cc2ccccc2)C(=O)N1 (centres undefined) | – | – | – | – | inactive | inactive | –
CN1CC(NC(=O)Cc2ccccc2)C(=O)N1C(=O)c1cccc(O)c1 (centres undefined) | 128 µg/mL (≈ 362 µM) | 128 µg/mL (≈ 362 µM) | – | – | – | – | –

Further lines, with some results ahead:

MIC (Micrococcus luteus) | MIC (Staphylococcus aureus [6]) | Structure (SMILES) | Activity (Escherichia coli [1]) | Activity (Staphylococcus aureus [2]) | Activity (Escherichia coli [3]) | Activity (Staphylococcus aureus [4]) | Activity (Escherichia coli [5])
128 µg/mL (≈ 379 µM) | 128 µg/mL (≈ 379 µM) | CN1CC(NC(=O)Cc2ccccc2)C(=O)N1C(=O)c1ccccc1 (centres undefined) | – | positive synergy test | – | – | Active
128 µg/mL (≈ 364 µM) | 128 µg/mL (≈ 364 µM) | CN1CC(NC(=O)Cc2ccccc2)C(=O)N1C(=O)Cc1ccccc1 (centres undefined) | – | positive synergy test | – | – | Active
